These results are taken from publication PMC3244877 (2009).

Structures are written as SMILES. pKi: −log10 of the molar value.

The target of this experiment is T1, HsEg5 (Homo sapiens, UniProt P52732).
T1 sequence (P52732 1-370): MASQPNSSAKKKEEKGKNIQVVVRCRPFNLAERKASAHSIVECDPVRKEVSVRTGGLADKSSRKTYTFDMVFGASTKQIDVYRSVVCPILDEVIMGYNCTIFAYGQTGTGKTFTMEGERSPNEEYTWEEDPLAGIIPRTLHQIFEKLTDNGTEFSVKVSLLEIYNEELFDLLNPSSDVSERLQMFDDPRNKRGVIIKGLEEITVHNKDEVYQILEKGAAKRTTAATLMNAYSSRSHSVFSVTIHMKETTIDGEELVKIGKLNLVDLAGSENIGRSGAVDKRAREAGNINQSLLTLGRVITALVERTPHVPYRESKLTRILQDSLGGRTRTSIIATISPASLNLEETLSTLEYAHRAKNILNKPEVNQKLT
Kind of experiment: NADH-coupled basal ATPase assay, Lineweaver-Burk. Format: biochemical.

Usually pKi stands for the negative decadic logarithm of the Ki, by convention in mol/L. Regarding `[Mo]` [NSC 622124], the pKi was 6.26.
